Experiments:
Format in all cases: in vivo
Aulacophora femoralis = assay: Test Example 12: Mortality Test for Aulacophora femoralis; settings: in Cucumis sativus, 144 h
Method: (§1) A 10% emulsifiable concentrate of the compound of the present invention (depending on the type of the compound, a 10% wettable powder was subjected to the test) was diluted with water containing a spreader to prepare a drug solution in a concentration of 500 ppm. In this drug solution, a leaf of cucumber was immersed for about 10 seconds and was air-dried and then put into a petri dish. In the petri dish, five 2 instar larvae of Aulacophora femoralis per petri dish were released and the petri dish was capped and stored in a thermostat room of 25° C. The number of killed larvae after 6 days was measured and the mortality was calculated from the same calculation formula as that in Test Example 1. Here, the test was carried out with two replications.

[1] = test system: Frankliniella occidentalis; assay: Test Example 5: Mortality Test for Frankliniella occidentalis; settings: 48 h
Method: In a styrol cup having an inner diameter of 7 cm, a wet filtration paper was laid, and on the paper, a leaf of kidney bean cut out so as to have the same diameter as the inner diameter of the cup was laid, followed by inoculating ten 1 instar larvae of Frankliniella occidentalis per leaf to the leaf. A 10% emulsifiable concentrate of the compound of the present invention (depending on the type of the compound, a 10% wettable powder was subjected to the test) was diluted with water containing a spreader to prepare a drug solution in a concentration of 500 ppm. The drug solution was dusted using a rotary dusting tower in an amount of 2.5 mL per styrol cup and the cup was capped and stored in a thermostat room of 25° C. The number of killed larvae after 2 days was measured and the mortality was calculated from the same calculation formula as that in Test Example 1. Here, the test was carried out with two replications.

Eysarcoris lewisi = assay: Test Example 7: Mortality Test for Eysarcoris lewisi; settings: in Oryza sativa, 48 h
Method: A 10% emulsifiable concentrate of the compound of the present invention (depending on the type of the compound, a 10% wettable powder was subjected to the test) was diluted with water containing a spreader to prepare a drug solution in a concentration of 500 ppm. In this drug solution, a leaf sheath of Oryza sativa was immersed for about 10 seconds and was air-dried and then put into a test tube. In the test tube, five 1 instar larvae of Eysarcoris lewisi per one test tube were released and the test tube was capped with a sponge and stored in a thermostat room of 25° C. The number of killed larvae after 2 days was measured and the mortality was calculated from the same calculation formula as that in Test Example 1. Here, the test was carried out with two replications.

[2] = test system: American dog ticks (Dermacentor variabilis); assay: Test Example 16: Mortality Test for American Dog Tick; settings: 96 h, thin film in petri dishes, 0.1 μg/cm^2 (acetone solution 100 ppm), protonymphs, after 4 days
Method: To the bottom surfaces and the side surfaces of two petri dishes having an inner diameter of 5.3 cm, 400 μL of an acetone solution in which 4 mg of a compound of the present invention was dissolved in 40 mL of acetone (concentration: 100 ppm) was applied and the acetone was volatilized to form a thin film of the compound of the present invention on the inner walls of the petri dishes. The inner wall of the used petri dish has an area of 40 cm^2, so that the amount of the applied drug is 0.1 μg/cm^2. In one petri dish, 10 American dog ticks (Dermacentor variabilis) protonymphs (male and female were mixed) were released and the petri dish was capped with the other petri dish. The seam part of the two petri dishes was sealed with a tape so that the protonymphs could not flee and the two petri dishes were stored in a thermostat room of 25° C. The number of killed protonymphes after 4 days was measured and the mortality was calculated from the same calculation formula as that in Test Example 1. Here, the test was carried out on the single sample.

Thrips palmi = assay: Test Example 6: Mortality Test for Thrips palmi; settings: 48 h
Method: In a styrol cup having an inner diameter of 7 cm, a wet filtration paper was laid, and on the paper, a leaf of kidney bean cut out so as to have the same diameter as the inner diameter of the cup was laid, followed by inoculating 10 imagines of Thrips palmi per leaf to the leaf. A 10% emulsifiable concentrate of the compound of the present invention (depending on the type of the compound, a 10% wettable powder was subjected to the test) was diluted with water containing a spreader to prepare a drug solution in a concentration of 100 ppm. The drug solution was dusted using a rotary dusting tower in an amount of 2.5 mL per one styrol cup and the cup was capped and stored in a thermostat room of 25° C. The number of killed imagines after 2 days was measured and the mortality was calculated from the same calculation formula as that in Test Example 1. Here, the test was carried out with two replications.

Homona magnanima = assay: Test Example 3: Mortality Test for Homona magnanima; settings: 144 h
Method: as §1, with “100” for “500”, “canarium album” for “cucumber”, “Homona magnanima” for “Aulacophora femoralis”

Myzus persicae = assay: Test Example 10: Mortality Test for Myzus persicae; settings: 144 h
Method: In a glass petri dish having an inner diameter of 3 cm, a wet absorbent cotton was laid, and on the cotton, a leaf of canarium album cut out so as to have the same diameter as the inner diameter of the petri dish was laid, followed by releasing 4 apterous imagines of Myzus persicae on the leaf. After one day, 10% emulsifiable concentrate of the compound of the present invention (depending on the type of the compound, a 10% wettable powder was subjected to the test) was diluted with water containing a spreader to prepare a drug solution in a concentration of 500 ppm. The drug solution was dusted using a rotary dusting tower (2.5 mg/cm^2) and the petri dish was capped and stored in a thermostat room of 25° C. The number of killed imagines after 6 days was measured and the mortality was calculated from the same calculation formula as that in Test Example 1. Here, the test was carried out with two replications.

Liriomyza trifolii = assay: Test Example 13: Mortality Test for Liriomyza trifolii; settings: 144 h, drug solution 500 ppm, kidney bean leaf with eggs immersed, after 6 days
Method: as §1, with “kidney bean on which Liriomyza trifolii laid eggs (10 eggs/leaf) and which was cut out to a diameter of 7 cm” for “cucumber”, “laid on” for “put into”, “wet filtration paper laid in a styrol cup having an inner diameter” for “petri dish. In the petri dish, five 2 instar larvae”, “7 cm. The styrol cup” for “Aulacophora femoralis per petri dish were released and the petri dish”

Cc1cc(C2=NOC(c3cc(Cl)cc(Cl)c3)(C(F)(F)F)C2)ccc1C(=O)NC1(c2ccccn2)CC1 (centres unmarked) [No. 1-007, 4-[5-(3,5-Dichlorophenyl)-5-trifluoromethyl-4,5-dihydroisoxazole-3-yl]-2-methyl-N-[1-(2-pyridyl)cyclopropyl]benzamide]
≥ 80%: mortality at 500 ppm (Aulacophora femoralis) | mortality at 500 ppm [1] | mortality at 500 ppm (Eysarcoris lewisi) | mortality at 100 ppm, 0.1 µg/cm2 [2] | mortality at 100 ppm (Thrips palmi) | mortality at 100 ppm (Homona magnanima) | mortality at 500 ppm (Myzus persicae) | mortality at 500 ppm (Liriomyza trifolii)

From patent US8119671B2, “Isoxazoline-substituted benzamide compound and pest control agent” (Nissan Chemical Industries, Ltd., priority 2007, dated 2012)
